# Test system: MV-4-11 cells
# Assay: Gene expression microarray analysis (Affymetrix PrimeView) and GSEA
# Format: cell-based, human
# Design: RFU PODN (11730768_x_at) / Fold change /veh PODN (11730768_x_at) / RFU LINC00158 (11744669_a_at) / Fold change /veh LINC00158 (11744669_a_at) / RFU DUSP10 (11751237_a_at) / Fold change /veh DUSP10 (11751237_a_at) / RFU ID3 (11757404_x_at) / Fold change /veh ID3 (11757404_x_at) / RFU PLEKHG5 (11737974_s_at) / Fold change /veh PLEKHG5 (11737974_s_at) / RFU LRRC4B (11730491_at) / Fold change /veh LRRC4B (11730491_at) / RFU GIMAP4 (11747438_a_at) / Fold change /veh GIMAP4 (11747438_a_at) / RFU KRT8 (11758183_x_at) / Fold change /veh KRT8 (11758183_x_at) / RFU CNN1 (11734310_a_at) / Fold change /veh CNN1 (11734310_a_at) / RFU VPS37D (11726825_at) / Fold change /veh VPS37D (11726825_at) / RFU C10orf10 (11716522_x_at) / Fold change /veh C10orf10 (11716522_x_at) / RFU KIR2DL2 /// KIR2DL4 /// KIR2DL5A /// KIR2DL5B /// KIR2DS1 /// KIR2DS2 /// KIR2DS3 /// KIR2DS4 /// KIR3DL3 /// KIR3DL3 /// KIR3DS1 (11738374_at) / Fold change /veh KIR2DL2 /// KIR2DL4 /// KIR2DL5A /// KIR2DL5B /// KIR2DS1 /// KIR2DS2 /// KIR2DS3 /// KIR2DS4 /// KIR3DL3 /// KIR3DL3 /// KIR3DS1 (11738374_at) / RFU C1QL1 (11718748_at) / Fold change /veh C1QL1 (11718748_at) / RFU TMPRSS4 (11747572_a_at) / Fold change /veh TMPRSS4 (11747572_a_at) / RFU HAMP (11756126_x_at) / Fold change /veh HAMP (11756126_x_at) / RFU RNFT2 (11725882_a_at) / Fold change /veh RNFT2 (11725882_a_at) / RFU NR4A2 (11747474_a_at) / Fold change /veh NR4A2 (11747474_a_at) / RFU ABCC12 (11746883_a_at) / Fold change /veh ABCC12 (11746883_a_at) / RFU TMEM136 (11760407_x_at) / Fold change /veh TMEM136 (11760407_x_at) / RFU CLDN22 /// WWC2 (11732394_at) / Fold change /veh CLDN22 /// WWC2 (11732394_at) / RFU HLA-DPB1 (11760878_x_at) / Fold change /veh HLA-DPB1 (11760878_x_at) / RFU SPINT1 (11716480_a_at) / Fold change /veh SPINT1 (11716480_a_at) / RFU GAP43 (11754022_s_at) / Fold change /veh GAP43 (11754022_s_at) / RFU A4GNT (11735810_at) / Fold change /veh A4GNT (11735810_at) / RFU PRB3 (11715151_x_at) / Fold change /veh PRB3 (11715151_x_at) / RFU TUBB4B (11761932_at) / Fold change /veh TUBB4B (11761932_at) / RFU CAPN14 (11732068_a_at) / Fold change /veh CAPN14 (11732068_a_at) / RFU TMCC2 (11721928_a_at) / Fold change /veh TMCC2 (11721928_a_at) / RFU IRGQ (11745062_a_at) / Fold change /veh IRGQ (11745062_a_at) / RFU FAM174B (11720279_a_at) / Fold change /veh FAM174B (11720279_a_at) / RFU TMPRSS4 (11748680_a_at) / Fold change /veh TMPRSS4 (11748680_a_at) / RFU FAM212B (11763350_a_at) / Fold change /veh FAM212B (11763350_a_at) / RFU PLEKHG5 (11743358_a_at) / Fold change /veh PLEKHG5 (11743358_a_at) / RFU ZSCAN30 (11745921_a_at) / Fold change /veh ZSCAN30 (11745921_a_at) / RFU CMKLR1 (11741424_a_at) / Fold change /veh CMKLR1 (11741424_a_at) / RFU LOC101060620 /// MAPK8IP1 (11723275_at) / Fold change /veh LOC101060620 /// MAPK8IP1 (11723275_at) / RFU SPTSSB (11747773_x_at) / Fold change /veh SPTSSB (11747773_x_at) / RFU PRSS12 (11739890_at) / Fold change /veh PRSS12 (11739890_at) / RFU BIN1 (11741810_x_at) / Fold change /veh BIN1 (11741810_x_at) / RFU WNT11 (11732464_a_at) / Fold change /veh WNT11 (11732464_a_at) / RFU C10orf10 (11716521_a_at) / Fold change /veh C10orf10 (11716521_a_at) / RFU C5orf56 (11738089_at) / Fold change /veh C5orf56 (11738089_at) / RFU CYB561 (11721691_x_at) / Fold change /veh CYB561 (11721691_x_at) / RFU ANKRD19P (11752326_a_at) / Fold change /veh ANKRD19P (11752326_a_at) / RFU OR2T12 /// OR2T33 /// OR2T8 (11738714_s_at) / Fold change /veh OR2T12 /// OR2T33 /// OR2T8 (11738714_s_at) / RFU VCAN (11748164_a_at) / Fold change /veh VCAN (11748164_a_at) / RFU JSRP1 (11732532_at) / Fold change /veh JSRP1 (11732532_at) / RFU KRTAP10-11 (11738290_x_at) / Fold change /veh KRTAP10-11 (11738290_x_at) / RFU MYO3A (11730013_a_at) / Fold change /veh MYO3A (11730013_a_at) / RFU EBF3 (11725865_a_at) / Fold change /veh EBF3 (11725865_a_at) / RFU CAMK2N1 (11719241_x_at) / Fold change /veh CAMK2N1 (11719241_x_at) / RFU C5orf56 (11738088_a_at) / Fold change /veh C5orf56 (11738088_a_at) / RFU OLFML3 (11715873_a_at) / Fold change /veh OLFML3 (11715873_a_at) / RFU LOC100653217 /// NTM (11731650_a_at) / Fold change /veh LOC100653217 /// NTM (11731650_a_at) / RFU MAPK11 (11762145_a_at) / Fold change /veh MAPK11 (11762145_a_at) / RFU FIZ1 (11724087_x_at) / Fold change /veh FIZ1 (11724087_x_at) / RFU OASL (11726364_x_at) / Fold change /veh OASL (11726364_x_at) / RFU SOX15 (11748057_x_at) / Fold change /veh SOX15 (11748057_x_at) / RFU CD79A (11719716_a_at) / Fold change /veh CD79A (11719716_a_at) / RFU HIST1H1D (11736915_at) / Fold change /veh HIST1H1D (11736915_at) / RFU CASKIN2 (11723855_a_at) / Fold change /veh CASKIN2 (11723855_a_at) / RFU LOC730098 (11760151_x_at) / Fold change /veh LOC730098 (11760151_x_at) / RFU OR4N2 (11742367_at) / Fold change /veh OR4N2 (11742367_at) / RFU PRRT2 (11749266_a_at) / Fold change /veh PRRT2 (11749266_a_at) / RFU SNX32 (11753110_a_at) / Fold change /veh SNX32 (11753110_a_at) / RFU CDHR5 (11726645_a_at) / Fold change /veh CDHR5 (11726645_a_at) / RFU RCAN1 (11760418_a_at) / Fold change /veh RCAN1 (11760418_a_at) / RFU FAM167A (11723789_a_at) / Fold change /veh FAM167A (11723789_a_at) / RFU FAM26E (11764081_at) / Fold change /veh FAM26E (11764081_at) / RFU ISYNA1 (11749810_s_at) / Fold change /veh ISYNA1 (11749810_s_at) / RFU ACY1 (11761880_at) / Fold change /veh ACY1 (11761880_at) / RFU 11764098_at / Fold change /veh 11764098_at / RFU SAMD14 (11745864_x_at) / Fold change /veh SAMD14 (11745864_x_at) / RFU NPB (11741838_a_at) / Fold change /veh NPB (11741838_a_at) / RFU TMPRSS6 (11731388_a_at) / Fold change /veh TMPRSS6 (11731388_a_at) / RFU KRTAP10-2 (11738614_at) / Fold change /veh KRTAP10-2 (11738614_at) / RFU ARHGAP8 /// PRR5-ARHGAP8 (11727945_x_at) / Fold change /veh ARHGAP8 /// PRR5-ARHGAP8 (11727945_x_at) / RFU KRTAP5-7 /// NADSYN1 (11734609_at) / Fold change /veh KRTAP5-7 /// NADSYN1 (11734609_at) / RFU RASL12 (11751679_a_at) / Fold change /veh RASL12 (11751679_a_at) / RFU CDKN2B (11736163_a_at) / Fold change /veh CDKN2B (11736163_a_at) / RFU PRF1 (11729649_at) / Fold change /veh PRF1 (11729649_at) / RFU, ZNF638 /// ZNF638-IT1 / Fold change vs veh, ZNF638 /// ZNF638-IT1 / RFU, PANK3 / Fold change vs veh, PANK3 / RFU, SH3YL1 / Fold change vs veh, SH3YL1 / RFU, ZEB2 / Fold change vs veh, ZEB2 / RFU, NRIP1 / Fold change vs veh, NRIP1 / RFU, PTTG1IP / Fold change vs veh, PTTG1IP / RFU, CAPN2 / Fold change vs veh, CAPN2 / RFU, MED14 / Fold change vs veh, MED14 / RFU, SNORA58 / Fold change vs veh, SNORA58 / RFU, C1orf63 / Fold change vs veh, C1orf63 / RFU, LRRFIP1 / Fold change vs veh, LRRFIP1 / RFU, NDUFAF7 / Fold change vs veh, NDUFAF7 / RFU, SLC12A2 / Fold change vs veh, SLC12A2 / RFU, IBTK / Fold change vs veh, IBTK / RFU, ESF1 / Fold change vs veh, ESF1 / Fold change vs veh, TMEM50B / RFU, TAOK1 / Fold change vs veh, TAOK1 / RFU, ACBD3 / Fold change vs veh, ACBD3 / RFU, TMA16 / Fold change vs veh, TMA16 / RFU, RWDD3 / Fold change vs veh, RWDD3 / RFU, BCAT1 / Fold change vs veh, BCAT1 / RFU, EDEM3 / Fold change vs veh, EDEM3 / RFU, TMEM33 / Fold change vs veh, TMEM33 / RFU, WDR75 / Fold change vs veh, WDR75 / RFU, AHCTF1 / Fold change vs veh, AHCTF1 / RFU, TFRC / Fold change vs veh, TFRC / RFU, ZDHHC17 / Fold change vs veh, ZDHHC17 / RFU, NOM1 / Fold change vs veh, NOM1 / RFU, ARL8B / Fold change vs veh, ARL8B / RFU, ZBTB11 / Fold change vs veh, ZBTB11 / RFU, TAMM41 / Fold change vs veh, TAMM41 / RFU, KIAA1704 /// LOC100996395 / Fold change vs veh, KIAA1704 /// LOC100996395 / RFU, ING1 / Fold change vs veh, ING1 / RFU, TRMT61B / Fold change vs veh, TRMT61B / RFU, FUBP3 / Fold change vs veh, FUBP3 / RFU, TP53 / Fold change vs veh, TP53 / RFU, TNKS2 / Fold change vs veh, TNKS2 / RFU, ZFP14 / Fold change vs veh, ZFP14 / RFU, ACTR2 / Fold change vs veh, ACTR2 / RFU, PPP3R1 / Fold change vs veh, PPP3R1 / RFU, PIK3R1 / Fold change vs veh, PIK3R1 / RFU, HNRNPA1 / Fold change vs veh, HNRNPA1 / RFU, RNF170 / Fold change vs veh, RNF170 / RFU, ZNF28 / Fold change vs veh, ZNF28 / RFU, RNGTT / Fold change vs veh, RNGTT / RFU, OGT / Fold change vs veh, OGT / RFU, BRD1 / Fold change vs veh, BRD1 / RFU, MARS / Fold change vs veh, MARS / RFU, ZNF655 / Fold change vs veh, ZNF655 / RFU, FAHD1 / Fold change vs veh, FAHD1 / RFU, BDP1 / Fold change vs veh, BDP1 / RFU, LRRCC1 / Fold change vs veh, LRRCC1 / RFU, ARID1A / Fold change vs veh, ARID1A / RFU, ZNF146 / Fold change vs veh, ZNF146 / RFU, ZNF330 / Fold change vs veh, ZNF330 / RFU, GPN3 / Fold change vs veh, GPN3 / RFU, C9orf123 / Fold change vs veh, C9orf123 / RFU, N4BP2L2 / Fold change vs veh, N4BP2L2 / RFU, ARFIP1 / Fold change vs veh, ARFIP1 / RFU, FAM179B / Fold change vs veh, FAM179B / RFU, BCL10 / Fold change vs veh, BCL10 / RFU, UHRF1BP1L / Fold change vs veh, UHRF1BP1L / RFU, BET1 / Fold change vs veh, BET1 / RFU, CNOT2 / Fold change vs veh, CNOT2 / RFU, ZNF268 / Fold change vs veh, ZNF268 / Fold change vs veh, ZNF507 / RFU, DGCR2 / Fold change vs veh, DGCR2 / RFU, WDSUB1 / Fold change vs veh, WDSUB1 / Fold change vs veh, HSP90B1 /// MIR3652 / RFU, ADSS / Fold change vs veh, ADSS / RFU, GK / Fold change vs veh, GK / RFU, ZNF148 / Fold change vs veh, ZNF148 / RFU, TAF9 / Fold change vs veh, TAF9 / RFU, SLC1A5 / Fold change vs veh, SLC1A5 / RFU, SLMO2 / Fold change vs veh, SLMO2 / RFU, ABCC4 / Fold change vs veh, ABCC4 / RFU, LOC101060439 /// RAP1B / Fold change vs veh, LOC101060439 /// RAP1B / RFU, RFX7 / Fold change vs veh, RFX7 / RFU, GTPBP10 / Fold change vs veh, GTPBP10 / RFU, CNEP1R1 / Fold change vs veh, CNEP1R1 / RFU, BIVM-ERCC5 /// ERCC5 / Fold change vs veh, BIVM-ERCC5 /// ERCC5 / RFU, ILF3 / Fold change vs veh, ILF3 / RFU 11762660_at / Fold change /veh 11762660_at / RFU VCAN (11757783_s_at) / Fold change /veh VCAN (11757783_s_at) / RFU DDX43 (11728927_at) / Fold change /veh DDX43 (11728927_at) / RFU KRT8 (11758188_x_at) / Fold change /veh KRT8 (11758188_x_at) / RFU NKD1 (11759106_at) / Fold change /veh NKD1 (11759106_at) / RFU SRD5A1 (11742802_a_at) / Fold change /veh SRD5A1 (11742802_a_at) / RFU TPSAB1 /// TPSB2 (11721975_s_at) / Fold change /veh TPSAB1 /// TPSB2 (11721975_s_at) / RFU GSTM3 (11746129_a_at) / Fold change /veh GSTM3 (11746129_a_at) / RFU IL23R (11737362_x_at) / Fold change /veh IL23R (11737362_x_at) / RFU TMEM51 (11727254_a_at) / Fold change /veh TMEM51 (11727254_a_at) / RFU PIWIL2 (11732686_x_at) / Fold change /veh PIWIL2 (11732686_x_at) / RFU ORM1 (11744905_x_at) / Fold change /veh ORM1 (11744905_x_at) / RFU CCDC152 (11743942_at) / Fold change /veh CCDC152 (11743942_at) / RFU ECM1 (11717891_a_at) / Fold change /veh ECM1 (11717891_a_at) / RFU IL23R (11748794_a_at) / Fold change /veh IL23R (11748794_a_at) / RFU TNFAIP8L3 (11732012_x_at) / Fold change /veh TNFAIP8L3 (11732012_x_at) / RFU MBOAT4 (11741988_at) / Fold change /veh MBOAT4 (11741988_at) / RFU 11764193_at / Fold change /veh 11764193_at / RFU TMEM53 (11763286_at) / Fold change /veh TMEM53 (11763286_at) / RFU MAGEB2 (11727129_at) / Fold change /veh MAGEB2 (11727129_at) / RFU TMEM200A (11744735_a_at) / Fold change /veh TMEM200A (11744735_a_at) / RFU CCDC152 (11751479_a_at) / Fold change /veh CCDC152 (11751479_a_at) / RFU FAM211A (11726209_a_at) / Fold change /veh FAM211A (11726209_a_at) / RFU RGS16 (11746705_a_at) / Fold change /veh RGS16 (11746705_a_at) / RFU VCAN (11755009_s_at) / Fold change /veh VCAN (11755009_s_at) / RFU RHOB (11743442_s_at) / Fold change /veh RHOB (11743442_s_at) / RFU RGS16 (11720943_a_at) / Fold change /veh RGS16 (11720943_a_at) / RFU RGS16 (11720944_at) / Fold change /veh RGS16 (11720944_at) / RFU, VPS4B / Fold change vs veh, VPS4B / RFU, CREB1 / Fold change vs veh, CREB1 / RFU, DNAJC13 / Fold change vs veh, DNAJC13 / RFU, GNAQ / Fold change vs veh, GNAQ / RFU, CDK5R1 / Fold change vs veh, CDK5R1 / RFU, ZRANB3 / Fold change vs veh, ZRANB3 / RFU, CUL4A / Fold change vs veh, CUL4A / RFU, CCNY / Fold change vs veh, CCNY / RFU, UFL1 / Fold change vs veh, UFL1 / RFU, COG3 / Fold change vs veh, COG3 / RFU, DIAPH2 / Fold change vs veh, DIAPH2 / RFU, SKA2 / Fold change vs veh, SKA2 / RFU, AFF3 / Fold change vs veh, AFF3 / RFU, LMF1 / Fold change vs veh, LMF1 / RFU, IPO11 / Fold change vs veh, IPO11 / RFU, DFFB / Fold change vs veh, DFFB / RFU, FOXP1 / Fold change vs veh, FOXP1 / RFU, CARD8 / Fold change vs veh, CARD8 / RFU, STRN3 / Fold change vs veh, STRN3 / RFU, ADK / Fold change vs veh, ADK / RFU, RASSF2 / Fold change vs veh, RASSF2 / RFU, WIPF1 / Fold change vs veh, WIPF1 / RFU, LARP1B / Fold change vs veh, LARP1B / RFU, RASA1 / Fold change vs veh, RASA1 / RFU, RB1 / Fold change vs veh, RB1 / RFU, PPFIA1 / Fold change vs veh, PPFIA1 / RFU, MAT2A / Fold change vs veh, MAT2A / RFU, CCT5 / Fold change vs veh, CCT5 / RFU, WDR92 / Fold change vs veh, WDR92 / RFU, CUX1 / Fold change vs veh, CUX1 / RFU, TTC7A / Fold change vs veh, TTC7A / RFU, TMEM135 / Fold change vs veh, TMEM135 / RFU, DEPTOR / Fold change vs veh, DEPTOR / RFU, CPM / Fold change vs veh, CPM / RFU, DNAJB6 / Fold change vs veh, DNAJB6 / RFU, CACNA2D3 / Fold change vs veh, CACNA2D3 / RFU, DTX4 / Fold change vs veh, DTX4 / RFU, TFCP2 / Fold change vs veh, TFCP2 / RFU, GMCL1 /// GMCL1P1 / Fold change vs veh, GMCL1 /// GMCL1P1 / RFU, AEBP2 / Fold change vs veh, AEBP2 / RFU, SNHG1 /// SNORD22 /// SNORD25 /// SNORD26 /// SNORD27 /// SNORD28 /// SNORD29 /// SNORD31 / Fold change vs veh, SNHG1 /// SNORD22 /// SNORD25 /// SNORD26 /// SNORD27 /// SNORD28 /// SNORD29 /// SNORD31 / Fold change (Aza/veh), C12orf56 (ProbeSet 11735607_a_at) / Fold change (ACY-1035/veh), C12orf56 (ProbeSet 11735607_a_at) / Fold change (Aza/veh), FGFR1OP (ProbeSet 11751329_s_at) / Fold change (ACY-1035/veh), FGFR1OP (ProbeSet 11751329_s_at) / Fold change (Aza/veh), VPS36 (ProbeSet 11739960_a_at) / Fold change (ACY-1035/veh), VPS36 (ProbeSet 11739960_a_at) / RFU SYPL1 (11715823_x_at) / Fold change /veh SYPL1 (11715823_x_at) / RFU IGFBP7 (11715501_s_at) / Fold change /veh IGFBP7 (11715501_s_at) / RFU REEP3 (11722064_at) / Fold change /veh REEP3 (11722064_at) / RFU IGLL1 (11728026_x_at) / Fold change /veh IGLL1 (11728026_x_at): dose or concentration left out as unconfirmed
# Settings: MV-4-11 cells, 48 hours
compound,measurement,value
Nc1ccc(-c2cccs2)cc1NC(=O)c1ccc2c(c1)cc(C1CC1)n2CCN1CCOCC1 [ACY-1035],RFU HIST1H1D (11736915_at),13.65 RFU

# Reference: paper PMC5218480 (PLoS ONE, 2017)
